Source: BindingDB's records for doi:10.1128/AAC.37.4.810 (National Cancer Institute-Bethesda, 1993)
pKi: −log10 of the molar value.

Target: T1, Dimer of Gag-Pol polyprotein [489-587] (Human immunodeficiency virus 1, UniProt P12497)
T1 construct: 489-587
Test: Protease Inhibition Assay
Settings: pH 6.2; 37 °C
Procedure: Inhibition constants were determined by a fluorometric assay with the fluorogenic substrate Arg-Glu(EDANS)-Ser-Gln-Asn-Tyr-Pro-Ile-Val-Lys(DABCYL)-Arg. The data were analyzed with the mathematical model for tight-binding inhibitors in which the concentration of inhibitor is less than or equal to the enzyme concentration. The data were fitted by nonlinear regression analysis to the equation with program Enzfitter (version 1.05).

| SMILES | pKi |
| --- | --- |
| CSC[C@H](NC(=O)COc1cccc2cnccc12)C(=O)N[C@@H](Cc1ccccc1)[C@H](O)C(=O)N1CSC[C@H]1C(=O)NC(C)(C)C [Kynostatin 272] | 11.26 |
| CSC[C@H](NC(=O)COc1cccc2cnccc12)C(=O)N[C@@H](Cc1ccccc1)[C@H](O)C(=O)N1CSC(C)(C)[C@H]1C(=O)NC(C)(C)C | 11.64 |
| CC(C)(C)NC(=O)[C@H]1N(C(=O)[C@@H](O)[C@H](Cc2ccccc2)NC(=O)[C@H](CC(N)=O)NC(=O)COc2cccc3ccccc23)CSC1(C)C [Noa-Asn-Apns-Dmt-NH-tBu] | 11.17 |
